Data on seven compounds can be found in patent publication US7713954B2, “Compositions and methods for treating cognitive disorders” (Roche Palo Alto LLC, priority 2004, dated 2010).

Read-outs that look alike come from different tables or passages of the source. A value given as a limit tells only on which side of the number the result lay.

In experiment [1] the target is human recombinant D2 receptor (Homo sapiens, UniProt P14416). As to the kind of experiment: Ligand binding affinity at Dopamine D2 receptor. Conditions: read-out: Receptor Affinity (pKi) Dopamine D2 (converted).
Chain of human recombinant D2 receptor (P14416 whole entry): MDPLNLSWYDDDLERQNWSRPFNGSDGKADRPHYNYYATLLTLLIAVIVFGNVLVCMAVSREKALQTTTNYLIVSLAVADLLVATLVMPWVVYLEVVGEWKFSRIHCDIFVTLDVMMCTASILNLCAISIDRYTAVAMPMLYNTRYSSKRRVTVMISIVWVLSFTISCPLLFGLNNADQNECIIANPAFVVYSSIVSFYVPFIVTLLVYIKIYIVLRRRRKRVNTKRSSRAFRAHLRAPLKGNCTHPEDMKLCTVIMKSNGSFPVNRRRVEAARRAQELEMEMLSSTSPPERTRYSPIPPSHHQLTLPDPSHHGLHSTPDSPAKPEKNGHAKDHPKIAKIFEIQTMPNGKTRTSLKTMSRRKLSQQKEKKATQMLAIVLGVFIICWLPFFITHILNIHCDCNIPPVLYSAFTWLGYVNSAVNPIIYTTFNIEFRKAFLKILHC
Another experiment concerns male Wistar rats. As to the kind of experiment: Novel object recognition model, scopolamine-induced memory impairment. Conditions: for reversal of the memory impairment induced by scopolamine (discrimination index d2): 90 or 60 mins prior to scopolamine 0.1 mg/kg ip; for reversal of scopolamine-induced memory impairment (discrimination index d2): with scopolamine 0.1 mg/kg sc, 30 mins prior to re-release. It counts as in vivo, rat. As to the method: Twenty-four 5-month-old male Wistar rats were used. The animals were housed individually in standard Makrolon cages on sawdust bedding in an air-conditioned room (about 20° C.). They were kept under a 12/12-hour light/dark cycle (lights on from 18.00 to 6.00 h) and had free access to food and water. Rats were housed and test in different rooms. A radio, which was playing softly, provided background noise in all rooms. All testing was done between 9.00 and 16.00 h.
Scopolamine hydrobromide was prepared daily and dissolved in saline. […] (injection volume 1 ml/kg) 30 minutes before trial 1. Test compounds were prepared daily and dissolved in saline, and the pH was adjusted to pH 5-7 using (0.1 N) NaOH. The compounds were administered orally or i.p. over a range of doses to n=12-24 animals per dose (injection volume 1 ml/kg). Time of dosing prior to first trial (T1) can be chosen to match the expected plasma Cmax for the compound. Administration was always given i.p. (injection volume 1 ml/kg).
The object recognition test was performed as described by Ennaceur and Delacour, Behav. Brain Res., 1988, 31, 47-59. This test measures the memory of an animal, by testing the ability of the animal to recognize that there is a new object in its environment. The apparatus consisted of a circular arena, 83 cm in diameter. Half of the 40 cm high wall was made of gray polyvinyl chloride, the other half of transparent polyvinyl chloride. The light intensity was equal in the different parts of the apparatus. Two objects were placed in a symmetrical position about 10 cm away from the gray wall. Each object was available in triplicate. Four different sets of objects were used: 1) a cone consisting of a gray polyvinyl chloride base (maximal diameter 18 cm) with a brass collar on top (total height 16 cm), 2) a standard 1 l transparent glass bottle (diameter 10 cm, height 22 cm) filled with sand, 3) a massive metal block (10.0×5.0×7.5 cm) with two holes (diameter 1.9 cm), and 4) a massive aluminum block with a tapering top (13.0×8.0×8.0 cm). A rat could not displace the objects. Fluorescent red tubes and a light bulb provided a constant illumination of about 20 lux on the floor of the apparatus.
A testing session comprised two trials. The duration of each trial was 3 min. During the first trial (T1) the apparatus contained two identical objects (samples). A rat was always placed in the apparatus facing the wall at the middle of the front (transparent) segment. After the first exploration period the rat was put back in its home cage. Subsequently, after a predetermined delay interval, the rat was put back in the apparatus for the second trial (T2), but now with two dissimilar objects, a familiar one (the sample) and a new object. The times spent in exploring each object during T1 and T2 were recorded manually with a personal computer. “Exploration” was defined as directing the nose to the object at a distance of no more than 2 cm and/or touching the object with the nose. Sitting on the object was not considered as exploratory behavior. In order to avoid the presence of olfactory trails the objects were always thoroughly cleaned. […]
Rats were treated with Compound 18 (0.3, 1, 3 mg/kg po) or Compound 3 (0.1, 0.3, 1 and 3 mg/kg i.p.) 90 or 60 mins prior to administration of scopolamine (0.1 mg/kg ip). The time each animal spent investigating the novel and familiar objects in the arena during a over a 3 min interval, commencing 30 minutes after the administration of scopolamine, was scored. […]

For another experiment, the target named is T1, human recombinant M1 (Homo sapiens, UniProt P11229).
T1 sequence (P11229 1-460): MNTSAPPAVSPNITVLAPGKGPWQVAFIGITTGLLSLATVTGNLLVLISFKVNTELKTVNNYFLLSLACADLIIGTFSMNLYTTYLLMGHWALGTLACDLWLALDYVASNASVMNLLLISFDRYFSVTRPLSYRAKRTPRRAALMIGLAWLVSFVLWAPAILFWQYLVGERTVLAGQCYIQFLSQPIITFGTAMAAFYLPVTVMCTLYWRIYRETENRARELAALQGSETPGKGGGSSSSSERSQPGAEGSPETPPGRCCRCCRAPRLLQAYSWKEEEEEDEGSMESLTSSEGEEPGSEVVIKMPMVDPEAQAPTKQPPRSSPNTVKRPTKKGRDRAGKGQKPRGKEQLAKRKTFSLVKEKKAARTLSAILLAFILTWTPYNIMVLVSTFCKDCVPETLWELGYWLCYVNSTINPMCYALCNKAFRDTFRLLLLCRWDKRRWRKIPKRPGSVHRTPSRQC
Briefly: Binding affinity at Muscarinic M1 receptor. To be noted: read-out: Receptor Affinity (pKi) Muscarinic M1 (converted).

For a further experiment, the target named is T2, Histamine H1 receptor (Cavia porcellus, UniProt P31389).
T2 construct: from tissue; host or cells: guinea-pig cerebellum
T2 sequence (P31389 whole entry): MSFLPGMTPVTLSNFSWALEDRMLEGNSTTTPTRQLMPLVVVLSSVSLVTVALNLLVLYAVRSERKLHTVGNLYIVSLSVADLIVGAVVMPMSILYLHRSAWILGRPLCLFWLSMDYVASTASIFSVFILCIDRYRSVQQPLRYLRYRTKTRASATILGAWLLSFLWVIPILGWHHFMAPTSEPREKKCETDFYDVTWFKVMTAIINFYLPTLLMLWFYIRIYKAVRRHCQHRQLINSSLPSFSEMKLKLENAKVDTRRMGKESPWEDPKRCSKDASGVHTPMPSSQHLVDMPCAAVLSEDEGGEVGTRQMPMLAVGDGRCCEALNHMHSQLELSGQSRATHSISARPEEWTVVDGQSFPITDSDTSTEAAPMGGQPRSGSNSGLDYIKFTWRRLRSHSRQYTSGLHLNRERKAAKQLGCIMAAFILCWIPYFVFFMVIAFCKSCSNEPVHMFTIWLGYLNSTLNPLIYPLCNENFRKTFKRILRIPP
As to the kind of experiment: Affinity to Histamine H1 receptor in guinea-pig cerebellum. Conditions: read-out: Receptor Affinity (pKi) Histamine H1 (converted). It counts as binding.

For a further experiment, the target named is T3, human recombinant M2 (Homo sapiens, UniProt P08172).
T3 sequence (P08172 1-466): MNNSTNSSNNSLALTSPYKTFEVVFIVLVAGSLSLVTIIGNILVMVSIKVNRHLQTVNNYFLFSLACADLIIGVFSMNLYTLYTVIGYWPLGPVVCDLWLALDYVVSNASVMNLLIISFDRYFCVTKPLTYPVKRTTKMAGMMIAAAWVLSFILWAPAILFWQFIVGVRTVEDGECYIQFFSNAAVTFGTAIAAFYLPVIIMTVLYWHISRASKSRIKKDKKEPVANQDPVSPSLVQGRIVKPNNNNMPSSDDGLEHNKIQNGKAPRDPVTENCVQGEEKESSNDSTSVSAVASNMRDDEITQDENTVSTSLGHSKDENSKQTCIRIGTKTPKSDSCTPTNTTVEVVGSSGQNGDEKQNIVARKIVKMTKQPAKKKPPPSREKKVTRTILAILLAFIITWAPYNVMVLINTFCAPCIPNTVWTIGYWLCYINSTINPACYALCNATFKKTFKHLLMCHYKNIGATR
As to the kind of experiment: Binding affinity at Muscarinic M2 receptor. To be noted: read-out: Receptor Affinity (pKi) Muscarinic M2 (converted).

For the next experiment, the target named is T4, human recombinant 5-HT2C (Homo sapiens, UniProt P28335).
T4 sequence (P28335 33-458): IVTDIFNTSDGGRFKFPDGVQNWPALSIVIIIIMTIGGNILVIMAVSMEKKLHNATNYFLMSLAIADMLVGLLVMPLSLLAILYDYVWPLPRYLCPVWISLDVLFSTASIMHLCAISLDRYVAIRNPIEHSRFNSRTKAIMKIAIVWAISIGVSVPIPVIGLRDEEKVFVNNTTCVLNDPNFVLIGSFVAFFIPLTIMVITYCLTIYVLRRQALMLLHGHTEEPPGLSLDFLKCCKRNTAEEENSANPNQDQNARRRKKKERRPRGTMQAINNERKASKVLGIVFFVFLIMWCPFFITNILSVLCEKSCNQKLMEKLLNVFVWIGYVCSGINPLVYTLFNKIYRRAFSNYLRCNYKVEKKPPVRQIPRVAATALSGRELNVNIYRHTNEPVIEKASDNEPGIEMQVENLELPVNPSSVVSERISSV
Briefly: Receptor affinity at 5-HT2C (Table 1; only a FLIPR calcium method is described). The experiment is classed as binding.

Another experiment concerns the target human recombinant 5-HT2A (Homo sapiens, UniProt P28223). Briefly: Receptor affinity at 5-HT2A (Table 1; only a FLIPR calcium method is described). The experiment is classed as binding. Conditions: read-out: Receptor Affinity (pKi) 5-HT2A (converted).
The target in a further experiment is T5, human 5-HT6 (Homo sapiens, UniProt P50406).
T5 construct: expressed in transfected cells; host or cells: HEK-293 (HEK293-h5-HT6)
T5 sequence (P50406 whole entry): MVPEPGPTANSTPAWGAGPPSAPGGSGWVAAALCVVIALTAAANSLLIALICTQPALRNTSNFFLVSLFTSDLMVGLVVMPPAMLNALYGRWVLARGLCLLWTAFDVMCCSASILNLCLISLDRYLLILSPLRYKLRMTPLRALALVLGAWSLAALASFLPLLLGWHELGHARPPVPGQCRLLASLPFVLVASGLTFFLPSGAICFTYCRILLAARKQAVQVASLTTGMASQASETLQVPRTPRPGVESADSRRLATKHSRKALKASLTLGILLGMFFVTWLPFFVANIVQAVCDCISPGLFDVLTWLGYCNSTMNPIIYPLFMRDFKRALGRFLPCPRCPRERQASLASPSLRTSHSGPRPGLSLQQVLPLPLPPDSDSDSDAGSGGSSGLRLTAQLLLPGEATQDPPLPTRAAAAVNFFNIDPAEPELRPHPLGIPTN
Briefly: Competition binding with [3H]-LSD at membranes of HEK-293 cells expressing human 5-HT6. As to the method:
All test and control compounds were dissolved in 100% DMSO at 10 mM and diluted as indicated in aqueous assay buffer. K1 values are presented at the mean and standard deviation of 3 separate determinations each consisting of the compound tested at each concentration in duplicate.

Experiment [2] concerns rat brain hippocampal slices (CA1 region). As to the kind of experiment: Long term potentiation in rat hippocampal slices (CA1), fEPSP. It counts as cell-based. To be noted: weak tetanus 50 Hz, 500 ms; room temperature.
[3] abbreviates: read-out: Receptor Affinity (pKi) 5-Ht2C (converted).
The mark [4] stands for this setting: [3H]-LSD, HEK293-h5-HT6 membranes, read-out: Receptor Affinity (pKi) 5-HT6 (converted).

Chain of human recombinant 5-HT2A (P28223 whole entry): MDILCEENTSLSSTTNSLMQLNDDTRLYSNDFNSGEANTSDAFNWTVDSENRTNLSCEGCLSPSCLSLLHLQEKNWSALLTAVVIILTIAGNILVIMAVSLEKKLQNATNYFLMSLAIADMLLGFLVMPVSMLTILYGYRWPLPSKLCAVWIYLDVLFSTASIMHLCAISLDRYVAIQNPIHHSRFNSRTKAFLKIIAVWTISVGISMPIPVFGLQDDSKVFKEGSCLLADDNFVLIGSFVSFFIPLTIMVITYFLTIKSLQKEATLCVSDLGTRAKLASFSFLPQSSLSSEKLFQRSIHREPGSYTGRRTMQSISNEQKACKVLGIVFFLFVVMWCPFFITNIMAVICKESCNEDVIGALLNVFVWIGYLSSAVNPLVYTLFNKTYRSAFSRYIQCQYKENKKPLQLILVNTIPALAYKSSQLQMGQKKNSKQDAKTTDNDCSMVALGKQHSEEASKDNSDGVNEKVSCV

As for `O=C1COc2c(N3CCNCC3)cccc2N1Cc1ccccc1` [Compound 3, 4-benzyl-8-piperazin-1-yl-4H-benzo[1,4]oxazin-3-one], the Ki in experiment [1] was more than 1000 nM; on human recombinant M1, more than 1000 nM; on Histamine H1 receptor it was more than 1000 nM; on human recombinant M2, more than 1000 nM; on human recombinant 5-HT2C it was 63.1 nM; on human recombinant 5-HT2A, 1.26 nM. Moreover, the Ki at human 5-HT6 is 0.158 nM. Further, the “reversal of the memory impairment induced by scopolamine (discrimination index d2)” value in the experiment with male Wistar rats (0.3 mg/kg i.p.) is “statistically significant reversal”.
With `O=C1NCc2c(N3CCNCC3)cccc2N1Cc1cccc(F)c1` [Compound 18, 1-(3-Fluoro-benzyl)-5-piperazin-1-yl-3,4-dihydro-1H-quinazolin-2-one], the Ki in experiment [1] is more than 1000 nM; at human recombinant M1, more than 1000 nM; at Histamine H1 receptor, more than 1000 nM; on human recombinant M2, more than 1000 nM; on human recombinant 5-HT2C it was 63.1 nM; on human recombinant 5-HT2A, 2 nM. On human 5-HT6, this compound showed a Ki of 0.631 nM. Moreover, the “reversal of the memory impairment induced by scopolamine (discrimination index d2)” value in the experiment on male Wistar rats (0.3 mg/kg po) and with male Wistar rats (1 mg/kg po) was “statistically significant reversal” throughout.
Regarding `CN1CCN(c2cccc3c(S(=O)(=O)c4ccccc4)c[nH]c23)CC1` [Compound 32, 3-phenylsulfonyl-7-(4-methyl-piperazin-1-yl)-1H-indole], the Ki in [1] is more than 1000 nM; on human recombinant M1 it was more than 316 nM; at Histamine H1 receptor it was more than 316 nM; on human recombinant M2, more than 316 nM; at human recombinant 5-HT2C (setting [3]), 158 nM; on human recombinant 5-HT2A, 79.4 nM. For the same compound, on human 5-HT6 (setting [4]), the Ki was 0.316 nM. For the same compound, in the experiment on male Wistar rats (3 mg/kg ip), the “reversal of scopolamine-induced memory impairment (discrimination index d2)” value was “Statistically significant reversal”.
Take `N=C(N)NCC1CCCc2cc(S(=O)(=O)c3ccccc3)ccc21` (stereo not drawn) [Compound 52, N-(6-Phenylsulfonyl-1,2,3,4-tetrahydro-naphthalen-1-ylmethyl)-guanidine]: the Ki is more than 1000 nM in [1]; more than 1000 nM at human recombinant M1; more than 1000 nM on Histamine H1 receptor; more than 1000 nM at human recombinant M2; 1000 nM on human recombinant 5-HT2C (setting [3]); 794 nM on human recombinant 5-HT2A. At human 5-HT6 (setting [4]), the Ki was 1.26 nM.
Turning to `O=c1[nH]c2c(N3CCNCC3)cccc2n1Cc1ccccc1` [Compound 64, 1-Benzyl-4-piperazin-1-yl-1,3-dihydro-benzoimidazol-2-one], the Ki in experiment [1] is more than 1000 nM; on human recombinant M1 it was 200 nM; on Histamine H1 receptor, more than 316 nM; at human recombinant M2 it was more than 316 nM; on human recombinant 5-HT2C (setting [3]), 631 nM; at human recombinant 5-HT2A, 25.1 nM. Further, the Ki at human 5-HT6 is 0.251 nM.
In the case of `COc1cccc([C@H](O)C2CCN(CCc3ccc(F)cc3)CC2)c1OC` [MDL-100907, R-α-(2,3-dimethoxyphenyl)-1-[2-(4-fluorophenyl)ethyl]-4-piperidinemethanol, reference compound], the “reversal of scopolamine-induced memory impairment (discrimination index d2)” value in the experiment with male Wistar rats (0.3 mg/kg ip) was “Statistically significant reversal”. In addition, the “long term potentiation, increase in slope of fEPSP relative to pre-tetanus baseline” value in experiment [2] is “Increase in long term potentiation”.
Take `CN(C)CCO/N=C(/C=C/c1ccc(O)cc1)c1ccccc1F` [SR46349B, (1Z,2E)-1-(2-fluorophenyl)-3-(4-hydroxyphenyl)prop-2-en-1-one-O-(2-dimethylaminoethyl)oxime, reference compound]: the Ki in [1] is more than 1000 nM; at human recombinant M1 it was more than 316 nM; on Histamine H1 receptor it was more than 1000 nM; on human recombinant M2 it was more than 1000 nM; at human recombinant 5-HT2C, 100 nM; at human recombinant 5-HT2A it was 1 nM. For the same compound, the Ki at human 5-HT6 (setting [4]) is more than 1000 nM.
